Assay results as given in patent US20230038138A1, “COMBINATION THERAPY FOR TREATING CANCER” (ASTRAZENECA AB, priority 2020, published 2023).

Test system: NIH-OVCAR3 human ovarian tumor cells
Assay: Efficacy in OVCAR3 xenograft model (tumor volume)
Assay type: in vivo, female CB.17 SCID mice
Conditions: dosed for 42 days
Source text: OVCAR3: NIH-OVCAR3 human ovarian tumor cells (15×10^6/mouse) were implanted subcutaneously in female CB.17 SCID mice. The mice were randomized into groups of eight for efficacy, based on tumor volume and treated with either vehicle (0.5% HPMC/0.1% Tween 80), AZD5153; olaparib or the combination of AZD5153 and olaparib approximately 10 days after implantation. AZD5153 was formulated in 0.5% HPMC/0.1% Tween 80 and dosed orally for 42 days. Olaparib was formulated in 50% of 30% w/v HP-β-CD (Kleptose) in purified water and also dosed for 42 days. For the combination groups, olaparib was dosed daily for 42 days and AZD5153 was dosed either daily, for 7 days on and 14 days off for 2 cycles or 14 days on and 7 days off for 2 cycles. Tumor length and width was measured by caliper and tumor volume was calculated using the formula (length×width^2)*π/6 then reported as tumor volume.

Structure (SMILES): COc1nnc2ccc(N3CCC(c4ccc(OCCN5CCN(C)C(=O)[C@H]5C)cc4)CC3)nn12 [AZD5153, (3R)-4-[2-[4-[1-(3-Methoxy-[1,2,4]triazolo[4,3-b]pyridazin-6-yl)-4-piperidyl]phenoxy]ethyl]-1,3-dimethyl-piperazin-2-one]
- efficacy (tumor volume) as monotherapy: modestly efficacious

Structure (SMILES): O=C(c1cc(Cc2n[nH]c(=O)c3ccccc23)ccc1F)N1CCN(C(=O)C2CC2)CC1 [olaparib, 4-[(3-{[4-(cyclopropylcarbonyl)piperazin-1-yl]carbonyl}-4-fluorophenyl)methyl]phthalazin-1(2H)-one]
- efficacy (tumor volume) as monotherapy: modestly efficacious
